In patent US7179937B2, “Cyclopentenone derivatives for cancer therapy” (Dabur Research Foundation, priority 2001, dated 2007):

Assays:
Caspase-3 = Caspase-3 induction in oral cancer cells (KB), colorimetric DEVD-pNA; assay type: cell-based, human; conditions: 5 ug/ml
Description: Human squamous cell carcinoma (KB) were plated in a 25 cm^2 flask. When cultures achieved confluence, the cyclopentenone derivative of structure 20 was added to cells. The final concentration of derivative of the structure 20 in the flask was 5 ug/ml. The untreated wells served as controls. The cells were incubated with the drug for 2 different time points of 6 and 16 hours at 37° C. The cells were collected by centrifugation at 2000 r.p.m. for 10 minutes. The supernatant was gently removed and discarded while Lysis Buffer was added to the cell pellet (25 ul of lysis buffer per 1×10^4 cell). The cell lysate was incubated on ice for 10 minutes and centrifuged at 10,000-×g for 1 minute. The supernatant was transferred to a new tube and kept on ice. 50 ul of the cell lysate was added in a 96 well plate. To this was added 2× Reaction Buffer. Prior to using reaction buffer 10 ul of fresh DTT stock per 1 ml of 2× Reaction Buffer was added. To each well 5 ul of Caspase-3 colorimetric substrate (DEVD-pNA) was added. The plate was incubated for 1–2 hours at 37° C. and read at 405 nm.
The level of caspase enzymatic activity in the cell lysate is directly proportional to the absorbance at 405 nm.

VEGF = VEGF levels in endothelial cells (ECV304), ELISA; assay type: cell-based, human; conditions: 5 ug/ml, 4 hours
Description: Human endothelial cells (ECV304) were plated at the density of 8–10×10^5 cells per 2 ml in a six well plate. After an overnight incubation of cells at 37° C., cyclopentenone derivatives at a concentration of 5 ug/ml was added to the wells. The untreated wells served as controls. The plates were incubated for 4 hours at 37° C. The medium was collected from all the wells (control and treated) and spun down at 2000 r.p.m to remove the cellular material. The supernatant was collected and used for ELISA (quantikine human VEGF, R&D Systems). The assay employs the quantitative sandwich enzyme immuonoassay technique. A monoclonal antibody specific for VEGF has been pre-coated onto a microplate. Standards and samples were pipetted into the wells and VEGF present was bound by the immobilized antibody. After washing away the unbound substances, an enzyme-linked polyclonal antibody specific for VEGF was added to the wells. Following a wash to remove any unbound antibody-enzyme reagent, a substrate solution was added to the wells and color developed in proportion to the amount of VEGF bound in the initial step. The optical density of each well was determined within 30 minutes using a microplate reader set to 450 nm and reference wavelength at 540 nm. The VEGF levels were inhibited by the addition of cyclopentenone derivatives in vitro.

Tubulin = assay: in vitro tubulin polymerization (assembly) assay, absorbance at 340 nm; assay type: biochemical; conditions: tubulin 1 mg/ml, 37° C., pH 6.9; read-out: IC50 values for inhibition of Tubulin Polymerization
Description: The cyclopentenone derivatives were checked for their effects on tubulin polymerization in in vitro. Briefly, the tubulin assembly reaction was performed at 37° C. in buffer containing 80 mM PIPES, 1 mM EGTA, 1.0 mM GTP and 1 mM MgCl2 (pH 6.9) at a tubulin concentration of 1 mg/ml in the presence or absence of the cyclopentenone derivatives. The final concentration of the cyclopentenone derivatives in the reaction mixture varied from 1–5 uM. The derivatives were dissolved in 0.1% DMSO. The control experiments were carried out with 0.1% DMSO. The tubulin polymerization was followed by measurement of the absorbance of the solution at 340 nm every 30 seconds. […] Thus the cyclopentenone derivatives mediated their observed anticancer activities by tubulin depolymerization.

PTC tumor xenografts = assay: In vivo anti-tumor activity on PTC (colon) xenografted mice; set-up: species or system Balb/c athymic mice; conditions: PTC xenograft, intravenously 0.5 mg/100 μL once a day for 14 days
Description: PTC tumor xenografts were grown in Balb/c athymic mice by subcutaneous inoculation of a single cell suspension of PTC cells (15×10^6 cells/100 μL). The tumor bearing animals were divided into 2 groups of three animals each including one group comprising untreated control animals. Treatment with compound of formula no. 49 was initiated when the average tumor volumes, as measured using a vernier caliper, were […]. Compound of formula no. 49 was administered intravenously to the assigned group of tumor bearing animals at a dose of 0.5 mg/100 μL once a day and the treatment was continued for a period of 14 days.
The antitumor activity of the compound was monitored by measuring tumor volumes every fourth day using the formula W*W*L*0.4 (W=smaller diameter, L=larger diameter). The percentage inhibition of tumor growth was calculated using the formula (1-tumor volume-treated/tumor volume-control)*100. […] Compound of formula no. […] The percentage inhibition of tumor growth caused compound of formula no. 49 as compared to controls on day 23 was 45.8%.

| SMILES | Percent Reduction in VEGF (VEGF) | IC50 (Tubulin) | further results |
| --- | --- | --- | --- |
| COc1ccc(C2=C(c3cc(OC)c(OC)c(OC)c3)C(=NO)CC2OC(C)=O)cc1 (stereo not shown) [Compound 20] | 2.0 ± 0.1% |  | Percent Induction of Caspase-3, 6 hours (Caspase-3; 6 hours): 13.6 ± 2.4%; Percent Induction of Caspase-3, 16 hours (Caspase-3; 16 hours): 20.7 ± 3.1% |
| COc1ccc(C2=C(c3cc(OC)c(OC)c(OC)c3)C(=O)CC2O)cc1O (stereo not shown) [Compound 39] |  | 1.4 ± 0.6 µM |  |
| COc1ccc(C2=C(c3cc(OC)c(OC)c(OC)c3)C(=O)C(O)C2)cc1 (stereo not shown) [Compound 48] |  | 2.1 ± 0.1 µM |  |
| COc1ccc(C2=C(c3cc(OC)c(OC)c(OC)c3)C(=NO)C(O)C2)cc1 (stereo not shown) [Compound 49] | 28.6 ± 1.9% | 2.3 ± 0.5 µM | antitumor activity on PTC xenografts (in words) (PTC tumor xenografts): significant antitumor activity |
| COc1ccc(C2=C(c3cc(OC)c(OC)c(OC)c3)/C(=N\O)C(O)C2)cc1F (stereo not shown) [Compound 66] |  | 2 ± 0.6 µM |  |
| COc1ccc(C2=C(c3cc(OC)c(OC)c(OC)c3)C(=O)C(O)C2)cc1O (stereo not shown) [Compound 74] |  | 1.8 ± 0.5 µM |  |
